# Assays:
# [1] = target: T1, SsCM1 ΔSP/cTP1-66 (Sclerotinia sclerotiorum, UniProt A7F9N9); assay: HPLC of salicylic acid made in E. coli KRX expressing the protein; assay type: cell-based; details: endogenous isochorismate of E. coli; 24 °C overnight, IPTG and rhamnose induction; isochorismate pyruvate lyase activity
# T1 construct: gene SS1G_14320; residues 1-66 (signal peptide and chloroplast targeting peptide) removed; codon-optimized, pET28a, in E. coli KRX cells
# [2] = target: T2, Cmu1 (Mycosarcoma maydis, UniProt A0A0D1DWQ2); assay: absorbance at […] nm, prephenate converted to phenylpyruvate; assay type: biochemical; details: weak chorismate mutase activity assay; conditions as in cited procedure
# T2 construct: His-tagged, pET, E. coli BL21, Ni-NTA
# T2 sequence (A0A0D1DWQ2 22-290): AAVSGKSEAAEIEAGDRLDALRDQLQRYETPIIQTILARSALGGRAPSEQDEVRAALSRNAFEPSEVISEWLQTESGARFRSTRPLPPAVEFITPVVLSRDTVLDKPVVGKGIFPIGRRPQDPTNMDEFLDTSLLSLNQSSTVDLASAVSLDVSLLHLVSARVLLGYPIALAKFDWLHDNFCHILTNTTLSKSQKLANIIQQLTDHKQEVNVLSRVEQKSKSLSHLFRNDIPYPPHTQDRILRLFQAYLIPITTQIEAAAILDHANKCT
# [3] = target: T3, AtCM1 (Arabidopsis thaliana, UniProt P42738); assay: as above; assay type: biochemical; details: chorismate mutase activity assay; conditions as in cited procedure
# T3 construct: gene CM1; His-tagged, pET, E. coli BL21, Ni-NTA
# T3 sequence (P42738 66-340): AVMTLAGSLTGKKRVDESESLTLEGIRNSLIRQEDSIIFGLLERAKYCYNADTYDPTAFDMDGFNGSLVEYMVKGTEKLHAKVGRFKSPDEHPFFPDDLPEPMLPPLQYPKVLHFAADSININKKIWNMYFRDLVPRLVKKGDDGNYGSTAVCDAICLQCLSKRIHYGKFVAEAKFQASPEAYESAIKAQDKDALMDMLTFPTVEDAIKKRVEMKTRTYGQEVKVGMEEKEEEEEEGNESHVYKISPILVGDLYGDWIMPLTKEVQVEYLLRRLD
# [4] = target: T4, AtCM3 (Arabidopsis thaliana, UniProt Q9C544); assay: as above; assay type: biochemical; details: chorismate mutase activity assay; conditions as in cited procedure
# T4 construct: gene CM3; His-tagged, pET, E. coli BL21, Ni-NTA
# T4 sequence (Q9C544 48-316): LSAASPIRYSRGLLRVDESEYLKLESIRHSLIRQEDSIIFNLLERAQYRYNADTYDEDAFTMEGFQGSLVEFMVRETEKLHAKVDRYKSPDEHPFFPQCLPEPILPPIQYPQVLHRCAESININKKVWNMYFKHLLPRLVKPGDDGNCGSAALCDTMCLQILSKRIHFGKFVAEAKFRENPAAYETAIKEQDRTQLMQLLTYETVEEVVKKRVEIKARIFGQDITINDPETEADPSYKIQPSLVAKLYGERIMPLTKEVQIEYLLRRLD
# [5] = target: T5, AtCM2 (Arabidopsis thaliana, UniProt Q9S7H4); assay: as above; assay type: biochemical; details: chorismate mutase activity assay; conditions as in cited procedure
# T5 construct: gene CM2; His-tagged, pET, E. coli BL21, Ni-NTA; cytosolic enzyme
# T5 sequence (Q9S7H4 1-265): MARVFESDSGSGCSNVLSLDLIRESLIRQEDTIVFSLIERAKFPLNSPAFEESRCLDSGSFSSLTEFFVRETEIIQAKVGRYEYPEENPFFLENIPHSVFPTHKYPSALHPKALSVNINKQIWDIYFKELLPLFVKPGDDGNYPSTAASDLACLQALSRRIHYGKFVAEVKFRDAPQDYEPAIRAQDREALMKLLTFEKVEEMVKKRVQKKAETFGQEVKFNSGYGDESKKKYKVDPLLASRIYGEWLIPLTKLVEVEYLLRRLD
# [6] = target: T6, SsCM1 (Sclerotinia sclerotiorum, UniProt A7F9N9); assay: as above; assay type: biochemical; details: weak chorismate mutase activity assay; conditions as in cited procedure
# T6 construct: gene SS1G_14320; His-tagged, pET, E. coli BL21, Ni-NTA
# T6 sequence (A7F9N9 entry or part of it): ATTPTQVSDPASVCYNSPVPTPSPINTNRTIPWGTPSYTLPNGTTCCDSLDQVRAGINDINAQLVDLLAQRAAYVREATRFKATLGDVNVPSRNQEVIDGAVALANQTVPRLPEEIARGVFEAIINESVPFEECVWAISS
# T1 sequence (A7F9N9 entry or part of it, stated change not applied): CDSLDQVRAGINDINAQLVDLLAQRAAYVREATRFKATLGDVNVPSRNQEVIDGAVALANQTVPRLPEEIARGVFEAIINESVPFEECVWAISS
Structure (SMILES),HPLC of salicylic acid made in E. coli KRX expressing the protein [1],"absorbance at 320 nm, prephenate converted to phenylpyruvate [2]","absorbance at 320 nm, prephenate converted to phenylpyruvate [3]","absorbance at 320 nm, prephenate converted to phenylpyruvate [4]","absorbance at 320 nm, prephenate converted to phenylpyruvate [5]","absorbance at 320 nm, prephenate converted to phenylpyruvate [6]"
C=C(O[C@H]1C=CC=C(C(=O)O)[C@@H]1O)C(=O)O [isochorismate],SsCM1 possesses some IPL activity when expressed in E. coli,–,–,–,–,–
C=C(O[C@@H]1C=C(C(=O)O)C=C[C@H]1O)C(=O)O [chorismate],–,all tested chorismate mutases are able to convert chorismate into prephenate,all tested chorismate mutases are able to convert chorismate into prephenate,all tested chorismate mutases are able to convert chorismate into prephenate,all tested chorismate mutases are able to convert chorismate into prephenate,all tested chorismate mutases are able to convert chorismate into prephenate
